Data reported in patent US20240279089A1, “METHOD FOR CONTROLLING THE GROWTH OF MICROORGANISMS” (RED BULL GMBH, priority 2021, published 2024).

Legend:
microorganisms = assay: Germ count in process water of pasteurization plants (Plate Count Agar); type: cell-based
Description: In order to examine the influence of chlorine dioxide on the microbial quality of process water, the process water of a first pasteurization plant was mixed with the aqueous solution according to the invention containing chlorine dioxide, and the process water of a second pasteurization plant was mixed with a biocide.
(§1) The aqueous solution according to the invention containing chlorine dioxide (prepared with the persulfate-chlorite process) was metered discontinuously into the process water of the first pasteurization plant in an amount so as to keep the redox potential of the process water in the range of 400 to 800 mV. When the redox potential in the process water fell below 400 to 450 mV, the aqueous solution according to the invention containing chlorine dioxide was metered in until a redox potential between 750 and 800 mV was reached.
In contrast, bronopol was added to the process water of the second pasteurization plant on a time-controlled basis (every three days) in such an amount that the concentration of bronopol in the process water was […]. […]
The germ count in 1 ml of sample was determined using “Plate Count Agar” (PCA), with the appropriate amount of process water being applied to PCA plates. One plate at a time was incubated at 37° C., and one plate at a time was incubated at 28° C. The evaluation of the germ count took place after 2 and 5 days, respectively.

[1] = Redox potential of treated process water; type: physicochemical
Description: as §1
Concurrently. the redox potential of the pasteurization plant in which chlorine dioxide was metered into the process water was measured at the time of sampling for determining the germ count.
In 5 measurements within the examination period. the redox potential of the process water treated with bronopol always amounted to more than 1000 mV.

## O=[N+]([O-])C(Br)(CO)CO [bronopol, reference compound]
microorganisms; 1 Mar. 2021
  Germ count/ml process water: >10000 mL⁻¹
microorganisms; 2 Feb. 2021
  Germ count/ml process water: 81600 mL⁻¹
microorganisms; 4 Feb. 2021
  Germ count/ml process water: >10000 mL⁻¹
microorganisms; 4 Jan. 2021
  Germ count/ml process water: 3600 mL⁻¹
microorganisms; 5 Apr. 2021
  Germ count/ml process water: >10000 mL⁻¹
microorganisms; 7 Jan. 2021
  Germ count/ml process water: 4200 mL⁻¹
microorganisms; 8 Apr. 2021
  Germ count/ml process water: >10000 mL⁻¹
microorganisms; 8 Feb. 2021
  Germ count/ml process water: >10000 mL⁻¹
microorganisms; 11 Feb. 2021
  Germ count/ml process water: >10000 mL⁻¹
microorganisms; 11 Jan. 2021
  Germ count/ml process water: 3400 mL⁻¹
microorganisms; 12 Apr. 2021
  Germ count/ml process water: >10000 mL⁻¹
microorganisms; 12 Mar. 2021
  Germ count/ml process water: >10000 mL⁻¹
microorganisms; 14 Jan. 2021
  Germ count/ml process water: >10000 mL⁻¹
microorganisms; 15 Apr. 2021
  Germ count/ml process water: >10000 mL⁻¹
microorganisms; 15 Mar. 2021
  Germ count/ml process water: >10000 mL⁻¹
microorganisms; 17 Feb. 2021
  Germ count/ml process water: 76000 mL⁻¹
microorganisms; 18 Feb. 2021
  Germ count/ml process water: >10000 mL⁻¹
microorganisms; 18 Jan. 2021
  Germ count/ml process water: >10000 mL⁻¹
microorganisms; 18 Mar. 2021
  Germ count/ml process water: >10000 mL⁻¹
microorganisms; 19 Apr. 2021
  Germ count/ml process water: >10000 mL⁻¹
microorganisms; 21 Jan. 2021
  Germ count/ml process water: 60200 mL⁻¹
microorganisms; 22 Feb. 2021
  Germ count/ml process water: >10000 mL⁻¹
microorganisms; 22 Mar. 2021
  Germ count/ml process water: >10000 mL⁻¹
microorganisms; 23 Apr. 2021
  Germ count/ml process water: >10000 mL⁻¹
microorganisms; 25 Jan. 2021
  Germ count/ml process water: >10000 mL⁻¹
microorganisms; 25 Mar. 2021
  Germ count/ml process water: >10000 mL⁻¹
microorganisms; 26 Apr. 2021
  Germ count/ml process water: >10000 mL⁻¹
microorganisms; 26 Feb. 2021
  Germ count/ml process water: 51000 mL⁻¹
microorganisms; 28 Jan. 2021
  Germ count/ml process water: 54400 mL⁻¹
microorganisms; 29 Apr. 2021
  Germ count/ml process water: >10000 mL⁻¹
microorganisms; 29 Mar. 2021
  Germ count/ml process water: >10000 mL⁻¹
[1]; 5 measurements within the examination period
  redox potential of the process water: more than 1000 mV

## [O][Cl+][O-] [chlorine dioxide]
microorganisms; 1 Mar. 2021
  Germ count/ml process water: 940 mL⁻¹
microorganisms; 2 Feb. 2021
  Germ count/ml process water: 7040 mL⁻¹
microorganisms; 4 Feb. 2021
  Germ count/ml process water: 800 mL⁻¹
microorganisms; 4 Jan. 2021
  Germ count/ml process water: 280 mL⁻¹
microorganisms; 5 Apr. 2021
  Germ count/ml process water: 160 mL⁻¹
microorganisms; 7 Jan. 2021
  Germ count/ml process water: 3840 mL⁻¹
microorganisms; 8 Apr. 2021
  Germ count/ml process water: 2800 mL⁻¹
microorganisms; 8 Feb. 2021
  Germ count/ml process water: 80 mL⁻¹
microorganisms; 11 Feb. 2021
  Germ count/ml process water: 100 mL⁻¹
microorganisms; 11 Jan. 2021
  Germ count/ml process water: 3480 mL⁻¹
microorganisms; 12 Apr. 2021
  Germ count/ml process water: 6560 mL⁻¹
microorganisms; 12 Mar. 2021
  Germ count/ml process water: 9200 mL⁻¹
microorganisms; 14 Jan. 2021
  Germ count/ml process water: 3120 mL⁻¹
microorganisms; 15 Apr. 2021
  Germ count/ml process water: 700 mL⁻¹
microorganisms; 15 Mar. 2021
  Germ count/ml process water: 100 mL⁻¹
microorganisms; 17 Feb. 2021
  Germ count/ml process water: 200 mL⁻¹
microorganisms; 18 Feb. 2021
  Germ count/ml process water: 1120 mL⁻¹
microorganisms; 18 Jan. 2021
  Germ count/ml process water: 4160 mL⁻¹
microorganisms; 18 Mar. 2021
  Germ count/ml process water: 60 mL⁻¹
microorganisms; 19 Apr. 2021
  Germ count/ml process water: 140 mL⁻¹
microorganisms; 21 Jan. 2021
  Germ count/ml process water: 2100 mL⁻¹
microorganisms; 22 Feb. 2021
  Germ count/ml process water: 1740 mL⁻¹
microorganisms; 22 Mar. 2021
  Germ count/ml process water: 8000 mL⁻¹
microorganisms; 23 Apr. 2021
  Germ count/ml process water: 2020 mL⁻¹
microorganisms; 25 Jan. 2021
  Germ count/ml process water: 4800 mL⁻¹
microorganisms; 25 Mar. 2021
  Germ count/ml process water: 10000 mL⁻¹
microorganisms; 26 Apr. 2021
  Germ count/ml process water: 4500 mL⁻¹
microorganisms; 26 Feb. 2021
  Germ count/ml process water: 2340 mL⁻¹
microorganisms; 28 Jan. 2021
  Germ count/ml process water: 500 mL⁻¹
microorganisms; 29 Apr. 2021
  Germ count/ml process water: 3700 mL⁻¹
microorganisms; 29 Mar. 2021
  Germ count/ml process water: 10000 mL⁻¹
microorganisms; redox potential kept at 400 to 800 mV, 4 months
  germ count compared with conventional biocide (in words): lower germ count
[1]; 1 Mar. 2021
  Redox potential in process water: 720 mV
[1]; 2 Feb. 2021
  Redox potential in process water: 710 mV
[1]; 4 Feb. 2021
  Redox potential in process water: 550 mV
[1]; 4 Jan. 2021
  Redox potential in process water: 810 mV
[1]; 5 Apr. 2021
  Redox potential in process water: 770 mV
[1]; 7 Jan. 2021
  Redox potential in process water: 740 mV
[1]; 8 Apr. 2021
  Redox potential in process water: 640 mV
[1]; 8 Feb. 2021
  Redox potential in process water: 800 mV
[1]; 11 Feb. 2021
  Redox potential in process water: 750 mV
[1]; 11 Jan. 2021
  Redox potential in process water: 710 mV
[1]; 12 Apr. 2021
  Redox potential in process water: 450 mV
[1]; 12 Mar. 2021
  Redox potential in process water: 580 mV
[1]; 14 Jan. 2021
  Redox potential in process water: 700 mV
[1]; 15 Apr. 2021
  Redox potential in process water: 800 mV
[1]; 15 Mar. 2021
  Redox potential in process water: 760 mV
[1]; 17 Feb. 2021
  Redox potential in process water: 780 mV
[1]; 18 Feb. 2021
  Redox potential in process water: 740 mV
[1]; 18 Jan. 2021
  Redox potential in process water: 620 mV
[1]; 18 Mar. 2021
  Redox potential in process water: 780 mV
[1]; 19 Apr. 2021
  Redox potential in process water: 780 mV
[1]; 21 Jan. 2021
  Redox potential in process water: 540 mV
[1]; 22 Feb. 2021
  Redox potential in process water: 510 mV
[1]; 22 Mar. 2021
  Redox potential in process water: 660 mV
[1]; 23 Apr. 2021
  Redox potential in process water: 560 mV
[1]; 25 Jan. 2021
  Redox potential in process water: 420 mV
[1]; 25 Mar. 2021
  Redox potential in process water: 490 mV
[1]; 26 Apr. 2021
  Redox potential in process water: 630 mV
[1]; 26 Feb. 2021
  Redox potential in process water: 640 mV
[1]; 28 Jan. 2021
  Redox potential in process water: 790 mV
[1]; 29 Apr. 2021
  Redox potential in process water: 680 mV
[1]; 29 Mar. 2021
  Redox potential in process water: 430 mV
